The values below come from ChEMBL document CHEMBL2439989 (Bioorg Med Chem Lett, 2013).

Data set [1] addresses T1, Adrenergic receptor alpha-1 (Rattus norvegicus, UniProt P15823+P23944+P43140).
T1 sequence (P15823 whole entry): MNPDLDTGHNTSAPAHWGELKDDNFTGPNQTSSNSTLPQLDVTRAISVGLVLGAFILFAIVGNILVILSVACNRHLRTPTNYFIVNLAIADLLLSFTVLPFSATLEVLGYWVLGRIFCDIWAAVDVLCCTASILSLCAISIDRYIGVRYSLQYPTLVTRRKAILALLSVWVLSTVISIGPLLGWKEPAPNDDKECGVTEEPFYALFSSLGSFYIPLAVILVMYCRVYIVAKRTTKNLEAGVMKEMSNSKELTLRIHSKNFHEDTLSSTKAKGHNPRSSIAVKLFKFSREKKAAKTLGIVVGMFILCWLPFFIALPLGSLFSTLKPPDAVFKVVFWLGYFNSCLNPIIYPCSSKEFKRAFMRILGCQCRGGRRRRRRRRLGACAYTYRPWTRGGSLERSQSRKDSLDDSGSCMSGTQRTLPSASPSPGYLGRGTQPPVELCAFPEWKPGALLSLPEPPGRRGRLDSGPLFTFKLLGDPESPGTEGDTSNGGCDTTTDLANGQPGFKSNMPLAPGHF
T1 sequence (P23944 whole entry): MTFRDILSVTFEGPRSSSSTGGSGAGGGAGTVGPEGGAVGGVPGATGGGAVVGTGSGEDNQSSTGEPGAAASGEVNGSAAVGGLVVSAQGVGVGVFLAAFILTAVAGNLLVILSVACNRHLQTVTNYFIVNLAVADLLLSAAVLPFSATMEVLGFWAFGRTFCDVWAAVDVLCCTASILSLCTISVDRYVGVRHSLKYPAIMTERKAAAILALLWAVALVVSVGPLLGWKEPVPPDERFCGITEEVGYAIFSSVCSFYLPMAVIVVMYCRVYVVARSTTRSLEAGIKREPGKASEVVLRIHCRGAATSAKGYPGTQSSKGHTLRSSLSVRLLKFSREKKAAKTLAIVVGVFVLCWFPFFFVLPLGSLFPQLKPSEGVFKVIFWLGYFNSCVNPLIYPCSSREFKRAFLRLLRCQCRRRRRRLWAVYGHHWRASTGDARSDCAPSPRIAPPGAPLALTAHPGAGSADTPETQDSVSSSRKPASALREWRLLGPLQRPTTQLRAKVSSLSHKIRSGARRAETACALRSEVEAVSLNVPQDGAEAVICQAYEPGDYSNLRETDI
T1 sequence (P43140 whole entry): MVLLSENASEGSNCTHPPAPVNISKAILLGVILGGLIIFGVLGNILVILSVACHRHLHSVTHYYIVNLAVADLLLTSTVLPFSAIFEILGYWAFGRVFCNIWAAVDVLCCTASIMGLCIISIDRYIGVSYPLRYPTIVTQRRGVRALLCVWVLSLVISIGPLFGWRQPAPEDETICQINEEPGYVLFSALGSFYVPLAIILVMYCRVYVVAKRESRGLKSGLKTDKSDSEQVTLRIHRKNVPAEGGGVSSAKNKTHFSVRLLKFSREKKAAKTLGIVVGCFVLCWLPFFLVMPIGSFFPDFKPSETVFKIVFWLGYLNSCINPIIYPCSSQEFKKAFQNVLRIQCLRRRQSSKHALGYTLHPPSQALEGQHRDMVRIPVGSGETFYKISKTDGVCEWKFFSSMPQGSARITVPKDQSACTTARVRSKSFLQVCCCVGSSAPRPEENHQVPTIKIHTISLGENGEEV
As to the kind of experiment: Displacement of [3H]-prazosin from alpha1 adrenergic receptor in rat cerebral cortex membranes after 50 mins. The data set is classed as cell membranes, Membrane.

Data set [2] in a line: (§1) Binding affinity to sigma 2 receptor (unknown origin) by radioligand binding assay. The arrangement: species or system Homo sapiens.
Data set [3] concerns the target T2, 5-hydroxytryptamine receptor 1A (Homo sapiens, UniProt P08908).
T2 sequence (P08908 whole entry): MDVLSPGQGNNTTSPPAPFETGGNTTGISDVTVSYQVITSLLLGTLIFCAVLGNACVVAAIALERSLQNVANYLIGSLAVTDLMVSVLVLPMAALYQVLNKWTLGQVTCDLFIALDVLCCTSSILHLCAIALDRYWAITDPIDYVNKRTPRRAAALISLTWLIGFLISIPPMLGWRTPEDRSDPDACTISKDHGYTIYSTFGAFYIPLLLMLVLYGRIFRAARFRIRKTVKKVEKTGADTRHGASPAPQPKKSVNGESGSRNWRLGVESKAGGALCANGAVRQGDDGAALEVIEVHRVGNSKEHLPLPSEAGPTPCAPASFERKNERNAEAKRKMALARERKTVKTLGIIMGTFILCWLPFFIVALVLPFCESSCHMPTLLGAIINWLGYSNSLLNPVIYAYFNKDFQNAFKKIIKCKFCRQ
Briefly: Displacement of [3H]-8-OH-DPAT from human recombinant 5HT1A receptor expressed in HEK293-EBNA cells after 120 mins. The data set is classed as cell-based.

The target in data set [4] is 5-hydroxytryptamine receptor 7 (Homo sapiens, UniProt P34969). Briefly: Displacement of [3H]5-CT from human 5HT7A receptor expressed in HEK293 cells after 60 mins. It is filed as cell-based. On the technique in general: Displacement assays read how much labelled ligand stays bound in the presence of the test substance.
The nature of data set [5]: Metabolic stability in rat liver S9 fractions at 10 uM after 30 mins by RP-HPLC analysis. The conditions noted are these: read-out: Stability. The data set is classed as ADME, subcellular, Liver S9 fraction.
Data set [6] deals with Sigma non-opioid intracellular receptor 1 (Homo sapiens, UniProt Q99720). Briefly: Binding affinity to sigma 1 receptor (unknown origin) by radioligand binding assay. As to conditions: for inhibition: concentration not given here.
The species entered for another data set is Homo sapiens. The data set is described as §1. The conditions noted are these: concentration not given here.
A short description of data set [7]: Half life in mouse brain at 10 to 30 mg/kg, ip. It is filed as ADME, organism-based. More on the design: dose 10-30 mg/kg, route intraperitoneal.
Data set [8] addresses T2, 5-hydroxytryptamine receptor 1A. Briefly: Displacement of [3H]-8-OH-DPAT from human 5HT1A receptor after […].
A short description of data set [9]: Efflux ratio of apparent permeability from basolateral to apical side over apical to basolateral side in human Caco2 cells at 1 to 100 uM after 120 mins by UV spectroscopic analysis. The data set is classed as ADME, cell-based. The conditions noted are these: Caco-2. Background: Caco-2 cells form a polarised layer with tight junctions and transporters.
The next data set concerns Mus musculus. As to the kind of experiment: Elimination half life in CD1 mouse assessed as 1-[2-(4-methoxyphenyl)phenyl]piperazine at 10 mg/kg, ip qd by RP-HPLC analysis. It is filed as ADME, organism-based. The arrangement: dose 10 mg/kg, route intraperitoneal. The conditions noted are these: in vivo.
The nature of data set [10]: Ratio of AUC from brain to plasma of CD1 mouse at 10 mg/kg, ip qd measured within 120 mins by RP-HPLC analysis. It is filed as ADME, organism-based. The arrangement: dose 10 mg/kg, route intraperitoneal. As to conditions: read-out: Ratio AUC.
The next data set concerns Brain. Briefly: Cmax in brain of CD1 mouse assessed as 1-[2-(4-methoxyphenyl)phenyl]piperazine at 10 mg/kg, ip qd after 30 mins by RP-HPLC analysis. It is filed as ADME, organism-based. More on the design: dose 10 mg/kg, route intraperitoneal. As to conditions: in vivo, 0.5 h.
Data set [11] is described as follows: Cmax in brain of CD1 mouse at 10 mg/kg, ip qd after 30 mins by RP-HPLC analysis. It is filed as ADME, organism-based. The arrangement: dose 10 mg/kg, route intraperitoneal.
The nature of data set [12]: Cmax in plasma of CD1 mouse at 10 mg/kg, ip qd after 15 mins by RP-HPLC analysis. The data set is classed as ADME, organism-based. More on the design: dose 10 mg/kg, route intraperitoneal.
The nature of data set [13]: Elimination half life in CD1 mouse at 10 mg/kg, ip qd by RP-HPLC analysis. It is filed as ADME, organism-based. The conditions noted are these: in vivo, read-out: beta t1/2. The arrangement: dose 10 mg/kg, route intraperitoneal.

Sequence of 5-hydroxytryptamine receptor 7 (P34969 whole entry): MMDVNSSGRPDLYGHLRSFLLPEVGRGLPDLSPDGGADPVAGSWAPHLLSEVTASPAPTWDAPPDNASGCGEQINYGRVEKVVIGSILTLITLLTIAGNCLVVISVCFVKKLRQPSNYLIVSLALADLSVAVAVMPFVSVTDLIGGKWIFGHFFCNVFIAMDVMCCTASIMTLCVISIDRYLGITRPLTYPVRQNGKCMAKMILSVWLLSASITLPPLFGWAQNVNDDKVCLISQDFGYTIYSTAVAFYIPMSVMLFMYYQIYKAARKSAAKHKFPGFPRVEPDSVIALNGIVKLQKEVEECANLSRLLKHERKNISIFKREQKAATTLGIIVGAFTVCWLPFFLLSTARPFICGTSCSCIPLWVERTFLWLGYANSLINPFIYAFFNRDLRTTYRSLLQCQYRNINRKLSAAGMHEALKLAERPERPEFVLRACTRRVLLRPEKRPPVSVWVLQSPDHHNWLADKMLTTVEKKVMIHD
Sequence of Sigma non-opioid intracellular receptor 1 (Q99720 whole entry): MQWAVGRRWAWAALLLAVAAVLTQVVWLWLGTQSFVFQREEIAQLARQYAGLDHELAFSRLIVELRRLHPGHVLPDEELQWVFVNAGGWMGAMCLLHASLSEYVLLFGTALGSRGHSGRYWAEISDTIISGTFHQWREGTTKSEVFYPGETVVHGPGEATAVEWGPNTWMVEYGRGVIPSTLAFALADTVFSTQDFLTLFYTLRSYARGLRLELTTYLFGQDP

Take `COc1ccc(-c2ccccc2N2CCN(CCCCCC(=O)NCc3ccccn3)CC2)cc1`: the Ki in [1] came out at 11.4 nM; in data set [2] it was 3480 nM; in [3], 35 nM; in data set [4], 15.2 nM. Further, in data set [5], the remaining at 0.5 h, 10 µM was found to be 69%.

In the case of `COc1ccc(-c2ccccc2N2CCN(CCCCCC(=O)NCc3ccncc3)CC2)cc1`, the inhibition constant Ki in [1] was 30.5 nM; in [2], 356 nM; in data set [3] it was 239 nM; in data set [6] it was over 5000 nM; in data set [4], 11.2 nM. The same compound had an inhibition in [6] of 30%. The remaining at 0.5 h, 10 µM in data set [5] came to 76%.

In the case of `COc1ccc(-c2ccccc2N2CCN(CCOCCC(=O)NCc3ccccn3)CC2)cc1`, the inhibition constant (Ki) was 295 nM in [1]; over 10000 nM in data set [2]; 918 nM in [3]; over 5000 nM in [6]; 23.5 nM in data set [4]. Further, the inhibition in the data set listed under Homo sapiens is 39%; in data set [6] it was 27%. Moreover, the remaining at 0.5 h, 10 µM in data set [5] turned out to be 78%.

Turning to `N#Cc1ccc(CNC(=O)CCCCCN2CCN(c3ccccc3-c3ccccc3)CC2)cc1`, the inhibition constant (Ki) in [1] was 22.6 nM; in data set [2], 4200 nM; in data set [6], over 5000 nM; in data set [8], 379 nM. In data set [6], this compound showed an inhibition of 48%. In data set [7], this compound registered a half-life of 1.15 h. In [5], the remaining at 0.5 h, 10 µM was 40%.

Turning to `COc1ccc(-c2ccccc2N2CCN(CCCCCC(=O)NCc3cccnc3)CC2)cc1`, the inhibition constant (Ki) worked out at 38.3 nM in data set [1], 638 nM in [2], 80 nM in data set [3] and 12.7 nM in data set [4]. Also, the efflux ratio at 2 h, up to 100 µM in [9] was found to be 4.5. Moreover, the remaining at 0.5 h, 10 µM in data set [5] was found to be 85%.

As to `COc1ccc(-c2ccccc2N2CCN(CCOCCC(=O)NCc3cccnc3)CC2)cc1`, in the data set on Mus musculus, the “beta t1/2” value came out at 2 h. Also, the inhibition constant Ki in data set [1] was 393 nM; in data set [2], over 10000 nM; in [3], 1270 nM; in [6] it was over 5000 nM; in data set [4], 23.8 nM. Also, the efflux ratio at 2 h, up to 100 µM in [9] was found to be 3.3. In addition, the inhibition in the data set listed under Homo sapiens turned out to be 38%; in [6] it was 36%. Also, the Kp at 2 h in data set [10] was 1.3. For the same compound, the highest concentration (Cmax) was 484 ng/g with Brain, 308 ng/g in [11] and 702 ng/mL in data set [12]. Besides, the remaining at 0.5 h, 10 µM in data set [5] amounted to 82%. Besides, the half-life in [13] is 0.733 h.

Consider `COc1ccc(-c2ccccc2N2CCN(CCOCCC(=O)NCc3ccncc3)CC2)cc1`, for which the Ki is 193 nM in [1]; over 10000 nM in data set [2]; 877 nM in data set [3]; over 5000 nM in data set [6]; 18 nM in data set [4]. Besides, the inhibition in the data set filed under Homo sapiens was 45%; in [6], 33%. In data set [5], the remaining at 0.5 h, 10 µM amounted to 82%.

The term Ki denotes the dissociation constant of the complex between target and ligand, obtained from inhibition or displacement. Broadly, the inhibition is the change of the read-out against control, counted positive when it falls. What is called efflux ratio is a quotient of directional permeabilities that is used to spot active efflux. By Cmax is commonly meant the peak of the concentration-time curve.
